# Test results reported in patent publication US4518790A, “15-Deoxy-16-hydroxy-16-vinyl and cyclopropyl substituted prostanoic acids and congeners” (American Cyanamid Company, priority 1980, dated 1985).
# What was measured:
# Format in all cases: in vivo, guinea pigs
# [1] = system: bronchospasms elicited by acetylcholine; assay: Bronchodilator activity (Konzett assay) against bronchospasm elicited by intravenous acetylcholine; details: Cavia porcellus, guinea pig, three logarithmic cumulative doses, spasmogen acetylcholine i.v., read-out: Bronchodilator Activity (Konzett Assays) ED50, Spasmogenic Agent Acetylcholine
# Protocol: (§1) The compounds of this invention are useful as bronchodilators for the treatment of asthma and chronic bronchitis. Bronchodilator activity is determined in guinea pigs against bronchospasms elicited by intravenous injections of 5-hydroxytryptamine, histamine or acetylcholine by the Konzett procedure. [See J. Lulling, P. Lievens, F. El Sayed and J. Prignot, Arzneimittel-Forschung, 18, 955 (1968).]
# (§2) In Table 16 which follows bronchodilator activity for representative compounds of this invention against one or more of three spasmogenic agents is expressed as an ED50 determined from the results obtained with three logarithmic cummulative intravenous doses. In this assay, these compounds of this invention provide an effect of longer duration than does natural 1-PGE1 or 1-PGE2.
# [2] = system: bronchospasms elicited by histamine; assay: Bronchodilator activity (Konzett assay) against bronchospasm elicited by intravenous histamine; details: Cavia porcellus, guinea pig, three logarithmic cumulative doses, spasmogen histamine i.v., read-out: Bronchodilator Activity (Konzett Assays) ED50, Spasmogenic Agent histamine
# Protocol: as §1, §2
# [3] = system: bronchospasms elicited by 5-hydroxytryptamine; assay: Bronchodilator activity (Konzett assay) against bronchospasm elicited by intravenous 5-hydroxytryptamine; details: Cavia porcellus, guinea pig, three logarithmic cumulative doses, spasmogen 5-hydroxytryptamine i.v., read-out: Bronchodilator Activity (Konzett Assays) ED50, Spasmogenic Agent 5-hydroxytryptamine
# Protocol: as §1, §2
SMILES,ED50 [1],ED50 [2],ED50 [3]
"C=CC(O)(C/C=C/[C@H]1[C@H](O)CC(=O)[C@@H]1CCCCCCC(=O)O)CCCC (relative stereo) [9-Oxo-11α,16-dihydroxy-16-vinyl-13-trans-prostenoic Acid]",760 µg/kg,1.11 µg/kg,1.86 µg/kg
"C=CC(O)(C/C=C/[C@H]1[C@H](O)CC(=O)[C@@H]1C/C=C\CCCC(=O)O)CCCC (relative stereo) [9-oxo-11α,16-dihydroxy-16-vinyl-5-cis,13-trans-prostadienoic acid]",0.78 µg/kg,0.162 µg/kg,0.252 µg/kg
"C=CC(O)(C/C=C/[C@H]1[C@H](O)CC(=O)[C@@H]1C/C=C\CCCC(=O)O)CCCCC (relative stereo) [9-oxo-11α,16-dihydroxy-16-vinyl-20-methyl-5-cis,13-trans-prostadienoic acid]",4.3 µg/kg,2.3 µg/kg,2.06 µg/kg
"C=CC(O)(C/C=C/[C@H]1[C@H](O)CC(=O)[C@@H]1C/C=C\CCCC(=O)OC)CCCC (relative stereo) [methyl-9-oxo-11α, 16-dihydroxy-16-vinyl-5-cis, 13-trans prostadienoate]",0.302 µg/kg,0.212 µg/kg,0.354 µg/kg
